According to patent US20240208992A1, “MACROCYCLES AS CFTR MODULATORS” (Idorsia Pharmaceuticals Ltd, priority 2021, published 2024):

Biological target: human F508del-CFTR (Homo sapiens, UniProt P13569, DEL508-508)
Assay: F508del-CFTR cell surface expression (corrector activity), DiscoveRx ß-galactosidase complementation chemiluminescence assay in recombinant U2OS cell line;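 note: U2OS cells co-expressing ProLink-tagged F508del-CFTR and a membrane-anchored enzyme acceptor, where more surface CFTR restores β-galactosidase activity measured by chemiluminescence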
Details: for EC50: EC50, F508del-CFTR cell surface expression, geomean values; for Emax: U2OS, arithmetic mean values
[1] = U2OS cells, 16h compound incubation
[2] = in relation to Emax of corrector lumacaftor (=100%)
[3] = U2OS cell line, 16h compound incubation
[4] = in relation to the Emax of the corrector lumacaftor (=100%), U2OS cell line, 16h compound incubation

Chain of human F508del-CFTR (P13569 with tags, fused parts or gaps DEL508-508): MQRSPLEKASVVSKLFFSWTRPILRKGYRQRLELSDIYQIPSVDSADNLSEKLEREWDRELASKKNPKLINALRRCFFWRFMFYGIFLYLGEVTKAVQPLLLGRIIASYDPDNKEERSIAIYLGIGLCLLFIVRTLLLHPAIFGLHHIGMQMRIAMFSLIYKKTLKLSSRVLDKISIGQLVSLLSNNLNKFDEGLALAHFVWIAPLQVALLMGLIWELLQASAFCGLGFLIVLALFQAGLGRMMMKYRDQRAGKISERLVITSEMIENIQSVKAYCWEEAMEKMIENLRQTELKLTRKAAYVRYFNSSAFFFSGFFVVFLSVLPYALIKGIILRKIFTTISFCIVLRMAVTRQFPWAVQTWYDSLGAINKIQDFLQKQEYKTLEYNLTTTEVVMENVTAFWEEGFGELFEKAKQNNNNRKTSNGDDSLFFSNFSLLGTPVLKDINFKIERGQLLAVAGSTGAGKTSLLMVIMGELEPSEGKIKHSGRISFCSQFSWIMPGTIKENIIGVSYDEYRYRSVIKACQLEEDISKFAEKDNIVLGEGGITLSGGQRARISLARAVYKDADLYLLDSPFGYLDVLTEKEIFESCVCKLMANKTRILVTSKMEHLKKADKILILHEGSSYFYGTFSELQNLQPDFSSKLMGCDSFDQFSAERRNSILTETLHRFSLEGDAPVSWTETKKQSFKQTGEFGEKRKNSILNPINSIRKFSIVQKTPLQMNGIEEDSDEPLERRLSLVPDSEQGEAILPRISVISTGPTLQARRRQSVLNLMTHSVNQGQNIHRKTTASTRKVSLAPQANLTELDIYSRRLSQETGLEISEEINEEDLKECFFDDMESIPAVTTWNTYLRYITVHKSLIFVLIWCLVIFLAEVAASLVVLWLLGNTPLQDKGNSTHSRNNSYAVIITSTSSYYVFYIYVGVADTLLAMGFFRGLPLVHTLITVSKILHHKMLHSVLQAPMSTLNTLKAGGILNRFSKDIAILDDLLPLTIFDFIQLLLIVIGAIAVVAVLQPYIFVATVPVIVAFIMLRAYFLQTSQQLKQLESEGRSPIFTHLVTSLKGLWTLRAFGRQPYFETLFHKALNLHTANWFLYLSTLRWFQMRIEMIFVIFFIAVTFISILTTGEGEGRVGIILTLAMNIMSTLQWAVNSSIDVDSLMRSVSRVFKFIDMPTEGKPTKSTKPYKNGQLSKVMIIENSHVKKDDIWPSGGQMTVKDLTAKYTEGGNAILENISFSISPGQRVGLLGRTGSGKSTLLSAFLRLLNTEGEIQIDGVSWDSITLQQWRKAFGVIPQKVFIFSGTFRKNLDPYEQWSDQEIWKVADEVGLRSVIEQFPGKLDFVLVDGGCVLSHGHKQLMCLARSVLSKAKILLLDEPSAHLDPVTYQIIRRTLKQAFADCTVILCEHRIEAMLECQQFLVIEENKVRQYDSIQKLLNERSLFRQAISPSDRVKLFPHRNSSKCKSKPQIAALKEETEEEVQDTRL

| Structure (SMILES) | EC50 [1] | Emax [2] | EC50 [3] | Emax [4] |
| --- | --- | --- | --- | --- |
| COc1cccc2c1C(=O)N[C@H](C(=O)NCCc1ccc3c(c1)OCO3)CC(=O)N(C)[C@@H](CC(C)C)C(=O)N(CC[C@H]1CCCCO1)CC(=O)N[C@H](Cc1ccccc1)CO2 (racemic) [Example 304, (3R,9S,13S)-N-(2-(benzo[d][1,3]dioxol-5-yl)ethyl)-3-benzyl-9-isobutyl-16-methoxy-10-methyl-5,8,11,15-tetraoxo-7-(2-((RS)-tetrahydro-2H-pyran-2-yl)ethyl)-2,3,4,5,6,7,8,9,10,11,12,13,14,15-tetradecahydrobenzo[p][1]oxa[4,7,10,14]tetraazacycloheptadecine-13-carboxamide] | – | – | 581 nM | 193% |
| Cc1cc(CCNC(=O)[C@@H]2CC(=O)N(C)[C@@H](CC(C)C)C(=O)N(C)C3(CC3)C(=O)N[C@H](Cc3ccccc3)COc3cnc4c(F)cccc4c3C(=O)N2)on1 [Example 440, (3′S,7′S,13′R)-13′-benzyl-18′-fluoro-7′-isobutyl-6′,9′-dimethyl-N-(2-(3-methylisoxazol-5-yl)ethyl)-1′,5′,8′,11′-tetraoxo-2′,3′,4′,5′,6′,7′,8′,9′,11′,12′,13′,14′-dodecahydro-1′H-spiro[cyclopropane-1,10′-[1]oxa[4,7,10,14]tetraazacycloheptadecino[17,16-c]quinoline]-3′-carboxamide] | 788 nM | 296% | – | – |
| CCN1CCN2C(=O)[C@H](CC(C)C)N(C)C(=O)C[C@@H](C(=O)NCCc3cccc(OC)c3)NC(=O)c3c(OC)cccc3OC[C@@H](Cc3ccccc3)NC(=O)[C@H]2C1 [Example 605, (7S,11S,20R,22aR)-20-benzyl-2-ethyl-7-isobutyl-14-methoxy-N-(3-methoxyphenethyl)-8-methyl-6,9,13,22-tetraoxo-1,3,4,6,7,8,9,10,11,12,13,19,20,21,22,22a-hexadecahydro-2H-benzo[p]pyrazino[2,1-f][1]oxa[4,7,10,14]tetraazacycloheptadecine-11-carboxamide] | 637 nM | 257% | – | – |
| C#Cc1cccc(CCNC(=O)[C@@H]2CC(=O)N(C)[C@@H](CC(C)C)C(=O)N3CCCC[C@@H]3C(=O)N[C@H](Cc3ccccc3)COc3ccnc(OC)c3C(=O)N2)c1 [Example 189, (7S,11S,17aR,20R)-20-benzyl-N-(3-ethynylphenethyl)-11-isobutyl-4-methoxy-10-methyl-5,9,12,18-tetraoxo-5,6,7,8,9,10,11,12,15,16,17,17a,18,19,20,21-hexadecahydro-14H-dipyrido[2,1-f:3′,4′-p][1]oxa[4,7,10,14]tetraazacycloheptadecine-7-carboxamide] | – | – | 453 nM | 270% |

The next lines start with results.

| EC50 [1] | Emax [2] | Structure (SMILES) | EC50 [3] | Emax [4] |
| --- | --- | --- | --- | --- |
| 273 nM | 394% | Cc1cc(CCNC(=O)[C@@H]2CC(=O)N(C)[C@@H](CC(C)C)C(=O)N3CCCC[C@@H]3C(=O)N[C@H](Cc3ccccc3)COc3cnc4cccc(F)c4c3C(=O)N2)on1 [Example 534, (9S,13S,19aR,22R)-22-benzyl-6-fluoro-13-isobutyl-12-methyl-N-(2-(3-methylisoxazol-5-yl)ethyl)-7,11,14,20-tetraoxo-7,8,9,10,11,12,13,14,17,18,19,19a,20,21,22,23-hexadecahydro-16H-pyrido[2′,1′:6,7][1]oxa[4,7,10,14]tetraazacycloheptadecino[17,16-c]quinoline-9-carboxamide] | – | – |
| 375 nM | 127% | CC(C)C[C@H]1C(=O)N2CCCC[C@@H]2C(=O)N[C@H](Cc2ccccc2)COc2cccc(F)c2C(=O)N[C@H](C(=O)NCCc2ccc(-n3nccn3)cc2)CC(=O)N1C [Example 651, (7S,11S,20R,22aR)-N-(4-(2H-1,2,3-triazol-2-yl)phenethyl)-20-benzyl-14-fluoro-7-isobutyl-8-methyl-6,9,13,22-tetraoxo-1,3,4,6,7,8,9,10,11,12,13,19,20,21,22,22a-hexadecahydro-2H-benzo[p]pyrido[2,1-f][1]oxa[4,7,10,14]tetraazacycloheptadecine-11-carboxamide] | – | – |
